Reference: ChEMBL document CHEMBL3045647, “Synthesis, anti-microbial evaluation, and molecular modeling of new pyrazolo[3,4-d]pyrimidine derivatives” (2012)

How the values were obtained:
Format in all cases: functional
[1] = test system: Aspergillus flavus; assay: Antifungal activity against Aspergillus flavus at 100 ug/ml after 48 to 72 hr by agar well diffusion method; conditions: read-out: IZ
[2] = test system: Pseudomonas aeruginosa; assay: Antibacterial activity against Pseudomonas aeruginosa minced cow meet at 100 ug/ml after 24 hr by agar well diffusion method; conditions: read-out: IZ
[3] = test system: Salmonella typhimurium; assay: Antibacterial activity against Salmonella enterica subsp. enterica serovar Typhimurium isolated from mastitic cow milk at 100 ug/ml after 24 hr by agar well diffusion method; conditions: read-out: IZ
[4] = test system: Listeria monocytogenes; assay: Antibacterial activity against Listeria monocytogenes isolated from mastitic cow milk at 100 ug/ml after 24 hr by agar well diffusion method; conditions: read-out: IZ
[5] = test system: Bacillus cereus; assay: Antibacterial activity against Bacillus cereus at 100 ug/ml after 24 hr by agar well diffusion method; conditions: read-out: IZ
[6] = test system: Staphylococcus aureus; assay: Antibacterial activity against Staphylococcus aureus isolated from minced cow meet at 100 ug/ml after 24 hr by agar well diffusion method; conditions: read-out: IZ
[7] = test system: Candida albicans; assay: Antifungal activity against Candida albicans at 100 ug/ml after 48 to 72 hr by agar well diffusion method; conditions: read-out: IZ
[8] = test system: Escherichia coli; assay: Antibacterial activity against Escherichia coli O157:H7 isolated from poultry at 100 ug/ml after 24 hr by agar well diffusion method; conditions: O157:H7, 24 h, read-out: IZ
[9] = test system: Candida albicans; assay: Antifungal activity against Candida albicans at 25 ug/ml after 48 to 72 hr by agar well diffusion method; conditions: read-out: IZ
[10] = test system: Aspergillus flavus; assay: Antifungal activity against Aspergillus flavus at 25 ug/ml after 48 to 72 hr by agar well diffusion method; conditions: read-out: IZ
[11] = test system: Escherichia coli; assay: Antibacterial activity against Escherichia coli O157:H7 isolated from poultry at 10 ug/ml after 24 hr by agar well diffusion method; conditions: O157:H7, 24 h, read-out: IZ
[12] = test system: Listeria monocytogenes; assay: Antibacterial activity against Listeria monocytogenes isolated from mastitic cow milk at 10 ug/ml after 24 hr by agar well diffusion method; conditions: read-out: IZ
[13] = test system: Pseudomonas aeruginosa; assay: Antibacterial activity against Pseudomonas aeruginosa minced cow meet at 10 ug/ml after 24 hr by agar well diffusion method; conditions: read-out: IZ
[14] = test system: Salmonella typhimurium; assay: Antibacterial activity against Salmonella enterica subsp. enterica serovar Typhimurium isolated from mastitic cow milk at 10 ug/ml after 24 hr by agar well diffusion method; conditions: read-out: IZ
[15] = test system: Bacillus cereus; assay: Antibacterial activity against Bacillus cereus at 10 ug/ml after 24 hr by agar well diffusion method; conditions: read-out: IZ
[16] = test system: Staphylococcus aureus; assay: Antibacterial activity against Staphylococcus aureus minced cow meet at 10 ug/ml after 24 hr by agar well diffusion method; conditions: read-out: IZ

What does the source list for Cc1nn(-c2ccccc2)c2nc(-n3[nH]c(=O)c(C#N)c3-c3ccc(Cl)cc3)nc(-c3ccc(Cl)cc3)c12?
zone of inhibition at 100 µg/mL [1]: 12 mm; zone of inhibition at 100 µg/mL [2]: 14 mm; zone of inhibition at 100 µg/mL [3]: 9 mm; zone of inhibition at 100 µg/mL [4]: 29 mm; zone of inhibition at 100 µg/mL [5]: 24 mm; zone of inhibition at 100 µg/mL [6]: 0 mm; zone of inhibition at 100 µg/mL [7]: 24 mm; zone of inhibition at 100 µg/mL [8]: 0 mm

Which results are given for Cc1nn(-c2ccccc2)c2nc(-n3[nH]c(=O)c(C#N)c3-c3cccs3)nc(-c3ccc(Cl)cc3)c12?
zone of inhibition at 100 µg/mL [1]: 12 mm; zone of inhibition at 100 µg/mL [2]: 14 mm; zone of inhibition at 100 µg/mL [3]: 10 mm; zone of inhibition at 100 µg/mL [4]: 32 mm; zone of inhibition at 100 µg/mL [5]: 9 mm; zone of inhibition at 100 µg/mL [6]: 14 mm; zone of inhibition at 100 µg/mL [7]: 20 mm; zone of inhibition at 100 µg/mL [8]: 0 mm

Which zone of inhibition at 100 µg/mL [1] does the source give for COc1ccc(C(=O)CSc2nc(-c3ccc(Cl)cc3)c3c(C)nn(-c4ccccc4)c3n2)cc1 here?
Its zone of inhibition at 100 µg/mL is 12 mm.

What about the zone of inhibition at 100 µg/mL [2] of the same molecule?
The zone of inhibition at 100 µg/mL was 18 mm.

And the zone of inhibition at 100 µg/mL [3]?
Its zone of inhibition at 100 µg/mL is 13 mm.

And the zone of inhibition at 100 µg/mL [4]?
The zone of inhibition at 100 µg/mL was 14 mm.

And the zone of inhibition at 100 µg/mL [5]?
Its zone of inhibition at 100 µg/mL is 18 mm.

And the zone of inhibition at 100 µg/mL [6]?
The zone of inhibition at 100 µg/mL was 16 mm.

What about the zone of inhibition at 100 µg/mL [7] of the same molecule?
Its zone of inhibition at 100 µg/mL is 26 mm.

And the zone of inhibition at 100 µg/mL [8]?
Its zone of inhibition at 100 µg/mL is 16 mm.

How did the zone of inhibition at 100 µg/mL [1] turn out when Cc1nn(-c2ccccc2)c2nc(NN)nc(-c3ccc(Cl)cc3)c12 was run?
The zone of inhibition at 100 µg/mL was 0 mm.

What about the zone of inhibition at 100 µg/mL [2] of the same molecule?
The zone of inhibition at 100 µg/mL was 16 mm.

And the zone of inhibition at 100 µg/mL [3]?
Its zone of inhibition at 100 µg/mL is 13 mm.

And the zone of inhibition at 100 µg/mL [4]?
The zone of inhibition at 100 µg/mL was 16 mm.

And the zone of inhibition at 100 µg/mL [5]?
Its zone of inhibition at 100 µg/mL is 26 mm.

And the zone of inhibition at 100 µg/mL [6]?
Its zone of inhibition at 100 µg/mL is 16 mm.

And the zone of inhibition at 100 µg/mL [7]?
Its zone of inhibition at 100 µg/mL is 16 mm.

What about the zone of inhibition at 100 µg/mL [8] of the same molecule?
The zone of inhibition at 100 µg/mL was 10 mm.

What does the source list for Cc1nn(-c2ccccc2)c2c1c(-c1ccc(Cl)cc1)nc1nncn12?
zone of inhibition at 100 µg/mL [1]: 0 mm; zone of inhibition at 100 µg/mL [2]: 12 mm; zone of inhibition at 100 µg/mL [3]: 13 mm; zone of inhibition at 100 µg/mL [4]: 20 mm; zone of inhibition at 100 µg/mL [5]: 22 mm; zone of inhibition at 100 µg/mL [6]: 14 mm; zone of inhibition at 100 µg/mL [7]: 18 mm; zone of inhibition at 100 µg/mL [8]: 10 mm

With Cc1nn(-c2ccccc2)c2nc(-n3nc(N)c(C#N)c3-c3ccc(Cl)cc3)nc(-c3ccc(Cl)cc3)c12 as the molecule, how does the zone of inhibition at 100 µg/mL [1] read?
The zone of inhibition at 100 µg/mL was 0 mm.

And the zone of inhibition at 100 µg/mL [2]?
Its zone of inhibition at 100 µg/mL is 9 mm.

What about the zone of inhibition at 100 µg/mL [3] of the same molecule?
Its zone of inhibition at 100 µg/mL is 9 mm.

And the zone of inhibition at 100 µg/mL [4]?
Its zone of inhibition at 100 µg/mL is 18 mm.

And the zone of inhibition at 100 µg/mL [5]?
Its zone of inhibition at 100 µg/mL is 12 mm.

What about the zone of inhibition at 100 µg/mL [6] of the same molecule?
The zone of inhibition at 100 µg/mL was 12 mm.

What about the zone of inhibition at 100 µg/mL [7] of the same molecule?
Its zone of inhibition at 100 µg/mL is 9 mm.

What about the zone of inhibition at 100 µg/mL [8] of the same molecule?
The zone of inhibition at 100 µg/mL was 0 mm.

What does the source list for Cc1nn(-c2ccccc2)c2c1C(c1ccc(Cl)cc1)n1c(s/c(=C\c3ccc(C#N)cc3)c1=O)=N2 (stereo not drawn)?
zone of inhibition at 100 µg/mL [1]: 8 mm; zone of inhibition at 100 µg/mL [2]: 18 mm; zone of inhibition at 100 µg/mL [3]: 15 mm; zone of inhibition at 100 µg/mL [4]: 20 mm; zone of inhibition at 100 µg/mL [5]: 22 mm; zone of inhibition at 100 µg/mL [6]: 28 mm; zone of inhibition at 100 µg/mL [7]: 9 mm; zone of inhibition at 100 µg/mL [8]: 18 mm

Which zone of inhibition at 100 µg/mL [1] does the source give for Cc1nn(-c2ccccc2)c2nc(SCC(=O)Cl)nc(-c3ccc(Cl)cc3)c12 here?
Its zone of inhibition at 100 µg/mL is 9 mm.

And the zone of inhibition at 100 µg/mL [2]?
The zone of inhibition at 100 µg/mL was 22 mm.

What about the zone of inhibition at 100 µg/mL [3] of the same molecule?
Its zone of inhibition at 100 µg/mL is 11 mm.

And the zone of inhibition at 100 µg/mL [4]?
Its zone of inhibition at 100 µg/mL is 29 mm.

What about the zone of inhibition at 100 µg/mL [5] of the same molecule?
The zone of inhibition at 100 µg/mL was 10 mm.

And the zone of inhibition at 100 µg/mL [6]?
Its zone of inhibition at 100 µg/mL is 14 mm.

What about the zone of inhibition at 100 µg/mL [7] of the same molecule?
Its zone of inhibition at 100 µg/mL is 8 mm.

What about the zone of inhibition at 100 µg/mL [8] of the same molecule?
Its zone of inhibition at 100 µg/mL is 9 mm.

Cc1nn(-c2ccccc2)c2nc(S)nc(-c3ccc(Cl)cc3)c12 was tested. Which zone of inhibition at 100 µg/mL [1] did it give?
The zone of inhibition at 100 µg/mL was 0 mm.

What about the zone of inhibition at 100 µg/mL [2] of the same molecule?
Its zone of inhibition at 100 µg/mL is 24 mm.

What about the zone of inhibition at 100 µg/mL [3] of the same molecule?
Its zone of inhibition at 100 µg/mL is 12 mm.

What about the zone of inhibition at 100 µg/mL [4] of the same molecule?
Its zone of inhibition at 100 µg/mL is 24 mm.

And the zone of inhibition at 100 µg/mL [5]?
Its zone of inhibition at 100 µg/mL is 22 mm.

What about the zone of inhibition at 100 µg/mL [6] of the same molecule?
Its zone of inhibition at 100 µg/mL is 18 mm.

What about the zone of inhibition at 100 µg/mL [7] of the same molecule?
The zone of inhibition at 100 µg/mL was 29 mm.

What about the zone of inhibition at 100 µg/mL [8] of the same molecule?
Its zone of inhibition at 100 µg/mL is 0 mm.

For Cc1nn(-c2ccccc2)c2nc(S)nc(-c3cccs3)c12, which zone of inhibition at 100 µg/mL [1] is on record?
Its zone of inhibition at 100 µg/mL is 10 mm.

And the zone of inhibition at 100 µg/mL [2]?
Its zone of inhibition at 100 µg/mL is 16 mm.

What about the zone of inhibition at 100 µg/mL [3] of the same molecule?
The zone of inhibition at 100 µg/mL was 14 mm.

And the zone of inhibition at 100 µg/mL [4]?
Its zone of inhibition at 100 µg/mL is 16 mm.

And the zone of inhibition at 100 µg/mL [5]?
The zone of inhibition at 100 µg/mL was 18 mm.

And the zone of inhibition at 100 µg/mL [6]?
The zone of inhibition at 100 µg/mL was 14 mm.

And the zone of inhibition at 100 µg/mL [7]?
Its zone of inhibition at 100 µg/mL is 10 mm.

What about the zone of inhibition at 100 µg/mL [8] of the same molecule?
Its zone of inhibition at 100 µg/mL is 14 mm.

What does the source list for OC(Cn1cncn1)(Cn1cncn1)c1ccc(F)cc1F [FLUCONAZOLE]?
zone of inhibition at 25 µg/mL [9]: 17 mm; zone of inhibition at 25 µg/mL [10]: 16 mm

How did the zone of inhibition at 10 µg/mL [11] turn out when NC[C@H]1O[C@H](O[C@H]2[C@H](O)[C@@H](O[C@H]3O[C@H](CO)[C@@H](O)[C@H](N)[C@H]3O)[C@H](N)C[C@@H]2N)[C@H](N)C[C@@H]1O [TOBRAMYCIN] was run?
Its zone of inhibition at 10 µg/mL is 20 mm.

What about the zone of inhibition at 10 µg/mL [12] of the same molecule?
Its zone of inhibition at 10 µg/mL is 20 mm.

And the zone of inhibition at 10 µg/mL [13]?
Its zone of inhibition at 10 µg/mL is 18 mm.

What about the zone of inhibition at 10 µg/mL [14] of the same molecule?
Its zone of inhibition at 10 µg/mL is 18 mm.

What about the zone of inhibition at 10 µg/mL [15] of the same molecule?
Its zone of inhibition at 10 µg/mL is 19 mm.

What about the zone of inhibition at 10 µg/mL [16] of the same molecule?
Its zone of inhibition at 10 µg/mL is 19 mm.
